Values quoted from earlier work, collected in patent US20230233572A1, “OPHTHALMIC COMPOSITIONS COMPRISING A COMBINATION OF FLUOROQUINOLONE ANTIBACTERIAL AGENT AND AN ANTI-INFLAMMATORY AGENT” (priority 2020, published 2023).

System: corneal surface of rabbit eyes
Settings: in vivo

CC(O)COC[C@H]1O[C@@H]2O[C@H]3[C@H](O)[C@@H](O)[C@@H](O[C@H]4[C@H](O)[C@@H](O)[C@@H](O[C@H]5[C@H](O)[C@@H](O)[C@@H](O[C@H]6[C@H](O)[C@@H](O)[C@@H](O[C@H]7[C@H](O)[C@@H](O)[C@@H](O[C@H]8[C@H](O)[C@@H](O)[C@@H](O[C@H]1[C@H](O)[C@H]2O)O[C@@H]8COCC(C)O)O[C@@H]7COCC(C)O)O[C@@H]6COCC(C)O)O[C@@H]5COCC(C)O)O[C@@H]4COCC(C)O)O[C@@H]3COCC(C)O (stereo partly drawn) [HP-β-CD, hydroxypropyl-β-cyclodextrin]
Tolerance by the corneal surface: well tolerated
Toxicity or irritation in rabbit eyes: not to be toxic or irritating
